Assay results taken from the supplement of paper PMC10307832.

Assays:
Experiment in all cases: relative viability (nuclei count vs DMSO), 5 days (fraction); higher = more cells survive
NCI-H520 = test system: NCI-H520
Procedure, shortened: (§1)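 Lung cancer cell lines, seeded in 1536-well plates, were treated the following day by pin tool with a single drug or with five library-drug doses (not always all listed) in √10 steps on top of a fixed anchor-drug dose. Cells were fixed and nuclei stained in one step after 5 days, and nuclei were counted. Relative viability is the nuclei count for treated wells divided by that for vehicle wells, reported as medians of duplicate plates.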

PC-3 [JPC-3] = test system: PC-3 [JPC-3]
Procedure, shortened: as §1

NCI-H838 = test system: NCI-H838
Procedure, shortened: as §1

NCI-H650 = test system: NCI-H650
Procedure, shortened: as §1

NCI-H1944 = test system: NCI-H1944
Procedure, shortened: as §1

NCI-H1651 = test system: NCI-H1651
Procedure, shortened: as §1

NCI-H1623 = test system: NCI-H1623
Procedure, shortened: as §1

RERF-LC-KJ = test system: RERF-LC-KJ
Procedure, shortened: as §1

A549 = test system: A549
Procedure, shortened: as §1

Cc1sc2c(c1C)C(c1ccc(Cl)cc1)=N[C@@H](CC(=O)OC(C)(C)C)c1nnc(C)n1-2 [JQ1] + Cc1nc(Nc2ncc(C(=O)Nc3c(C)cccc3Cl)s2)cc(N2CCN(CCO)CC2)n1 [Dasatinib] (partner 0.075 µM)
relative viability (NCI-H520; first compound 0.04 µM): 0.206
relative viability (NCI-H520; first compound 0.1265 µM): 0.196
relative viability (NCI-H520; first compound 0.4 µM): 0.207
relative viability (NCI-H520; first compound 1.265 µM): 0.159
relative viability (NCI-H520; first compound 4 µM): 0.221
relative viability (PC-3 [JPC-3]; first compound 0.04 µM): 0.998
relative viability (PC-3 [JPC-3]; first compound 0.1265 µM): 1.02
relative viability (PC-3 [JPC-3]; first compound 0.4 µM): 1.16
relative viability (PC-3 [JPC-3]; first compound 1.265 µM): 0.96
relative viability (PC-3 [JPC-3]; first compound 4 µM): 0.578
relative viability (NCI-H838; first compound 0.04 µM): 0.294
relative viability (NCI-H838; first compound 0.1265 µM): 0.217
relative viability (NCI-H838; first compound 0.4 µM): 0.264
relative viability (NCI-H838; first compound 1.265 µM): 0.229
relative viability (NCI-H838; first compound 4 µM): 0.201
relative viability (NCI-H650; first compound 0.04 µM): 0.462
relative viability (NCI-H650; first compound 0.1265 µM): 0.301
relative viability (NCI-H650; first compound 0.4 µM): 0.328
relative viability (NCI-H650; first compound 1.265 µM): 0.277
relative viability (NCI-H650; first compound 4 µM): 0.244
relative viability (NCI-H1944; first compound 0.04 µM): 0.202
relative viability (NCI-H1944; first compound 0.1265 µM): 0.14
relative viability (NCI-H1944; first compound 0.4 µM): 0.204
relative viability (NCI-H1944; first compound 1.265 µM): 0.179
relative viability (NCI-H1944; first compound 4 µM): 0.214
relative viability (NCI-H1651; first compound 0.04 µM): 0.384
relative viability (NCI-H1651; first compound 0.1265 µM): 0.292
relative viability (NCI-H1651; first compound 0.4 µM): 0.306
relative viability (NCI-H1651; first compound 1.265 µM): 0.246
relative viability (NCI-H1651; first compound 4 µM): 0.221
relative viability (NCI-H1623; first compound 0.04 µM): 0.634
relative viability (NCI-H1623; first compound 0.1265 µM): 0.483
relative viability (NCI-H1623; first compound 0.4 µM): 0.466
relative viability (NCI-H1623; first compound 1.265 µM): 0.357
relative viability (NCI-H1623; first compound 4 µM): 0.32
relative viability (RERF-LC-KJ; first compound 0.04 µM): 0.763
relative viability (RERF-LC-KJ; first compound 0.1265 µM): 0.646
relative viability (RERF-LC-KJ; first compound 0.4 µM): 0.72
relative viability (RERF-LC-KJ; first compound 1.265 µM): 0.576
relative viability (RERF-LC-KJ; first compound 4 µM): 0.332

Cc1sc2c(c1C)C(c1ccc(Cl)cc1)=N[C@@H](CC(=O)OC(C)(C)C)c1nnc(C)n1-2 [JQ1] + N=C(N)NC(=N)NCCc1ccccc1 [Phenformin] (partner 250 µM)
relative viability (NCI-H520; first compound 0.04 µM): 0.475
relative viability (NCI-H520; first compound 0.1265 µM): 0.614
relative viability (NCI-H520; first compound 0.4 µM): 0.544
relative viability (NCI-H520; first compound 1.265 µM): 0.275
relative viability (NCI-H520; first compound 4 µM): 0.321
relative viability (PC-3 [JPC-3]; first compound 0.04 µM): 0.466
relative viability (PC-3 [JPC-3]; first compound 0.1265 µM): 0.474
relative viability (PC-3 [JPC-3]; first compound 0.4 µM): 0.46
relative viability (PC-3 [JPC-3]; first compound 1.265 µM): 0.461
relative viability (PC-3 [JPC-3]; first compound 4 µM): 0.376
relative viability (NCI-H838; first compound 0.04 µM): 0.554
relative viability (NCI-H838; first compound 0.1265 µM): 0.285
relative viability (NCI-H838; first compound 0.4 µM): 0.372
relative viability (NCI-H838; first compound 1.265 µM): 0.253
relative viability (NCI-H838; first compound 4 µM): 0.17
relative viability (NCI-H650; first compound 0.04 µM): 0.418
relative viability (NCI-H650; first compound 0.1265 µM): 0.358
relative viability (NCI-H650; first compound 0.4 µM): 0.313
relative viability (NCI-H650; first compound 1.265 µM): 0.273
relative viability (NCI-H650; first compound 4 µM): 0.25
relative viability (NCI-H1944; first compound 0.04 µM): 0.195
relative viability (NCI-H1944; first compound 0.1265 µM): 0.174
relative viability (NCI-H1944; first compound 0.4 µM): 0.191
relative viability (NCI-H1944; first compound 1.265 µM): 0.149
relative viability (NCI-H1944; first compound 4 µM): 0.182
relative viability (NCI-H1651; first compound 0.04 µM): 0.265
relative viability (NCI-H1651; first compound 0.1265 µM): 0.249
relative viability (NCI-H1651; first compound 0.4 µM): 0.305
relative viability (NCI-H1651; first compound 1.265 µM): 0.245
relative viability (NCI-H1651; first compound 4 µM): 0.241
relative viability (A549; first compound 0.04 µM): 0.171
relative viability (A549; first compound 0.1265 µM): 0.137
relative viability (A549; first compound 0.4 µM): 0.14
relative viability (A549; first compound 1.265 µM): 0.182
relative viability (A549; first compound 4 µM): 0.21
relative viability (NCI-H1623; first compound 0.04 µM): 0.597
relative viability (NCI-H1623; first compound 0.1265 µM): 0.628
relative viability (NCI-H1623; first compound 0.4 µM): 0.547
relative viability (NCI-H1623; first compound 1.265 µM): 0.486
relative viability (NCI-H1623; first compound 4 µM): 0.406
relative viability (RERF-LC-KJ; first compound 0.04 µM): 0.402
relative viability (RERF-LC-KJ; first compound 0.1265 µM): 0.374
relative viability (RERF-LC-KJ; first compound 0.4 µM): 0.324
relative viability (RERF-LC-KJ; first compound 1.265 µM): 0.316
relative viability (RERF-LC-KJ; first compound 4 µM): 0.292
